From PMC11612208, “A novel small molecule Enpp1 inhibitor improves tumor control following radiation therapy by targeting stromal Enpp1 expression” (Scientific Reports, 2024)

Legend:
[1] = molecular target: T1, Enpp1 (Homo sapiens, UniProt P22413); assay: Selectivity and specificity for Enpp1 (statement); details: additional studies necessary to confirm in vivo
T1 sequence (P22413 1-925): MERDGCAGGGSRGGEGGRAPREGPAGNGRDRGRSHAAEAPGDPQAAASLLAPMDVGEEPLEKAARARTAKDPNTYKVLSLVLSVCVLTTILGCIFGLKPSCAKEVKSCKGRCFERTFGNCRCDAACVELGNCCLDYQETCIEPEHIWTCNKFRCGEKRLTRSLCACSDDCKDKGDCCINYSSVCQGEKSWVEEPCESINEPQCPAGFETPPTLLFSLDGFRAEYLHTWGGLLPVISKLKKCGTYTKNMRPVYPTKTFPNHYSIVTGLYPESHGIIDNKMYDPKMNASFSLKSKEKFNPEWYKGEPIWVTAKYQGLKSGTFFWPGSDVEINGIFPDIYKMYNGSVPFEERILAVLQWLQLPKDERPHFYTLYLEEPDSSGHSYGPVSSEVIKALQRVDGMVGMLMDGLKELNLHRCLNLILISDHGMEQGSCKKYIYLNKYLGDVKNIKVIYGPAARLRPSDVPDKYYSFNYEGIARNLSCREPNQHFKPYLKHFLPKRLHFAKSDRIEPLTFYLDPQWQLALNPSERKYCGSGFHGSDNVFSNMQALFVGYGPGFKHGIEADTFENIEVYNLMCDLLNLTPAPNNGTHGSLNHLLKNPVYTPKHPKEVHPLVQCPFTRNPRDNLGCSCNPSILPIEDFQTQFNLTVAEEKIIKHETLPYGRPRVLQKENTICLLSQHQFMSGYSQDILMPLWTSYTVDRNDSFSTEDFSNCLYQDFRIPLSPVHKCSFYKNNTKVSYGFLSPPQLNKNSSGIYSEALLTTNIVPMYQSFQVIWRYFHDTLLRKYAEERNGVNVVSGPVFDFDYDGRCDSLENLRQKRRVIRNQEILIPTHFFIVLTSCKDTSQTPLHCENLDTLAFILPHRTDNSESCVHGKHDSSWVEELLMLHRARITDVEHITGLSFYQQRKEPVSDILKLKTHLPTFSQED

[2] = test system: MC38 tumors; assay: MC38 tumor model, VIR3 oral gavage +/- 12 Gy focal RT, survival; type: in vivo, mouse
Procedure: (§1) Tumors were implanted subcutaneously into the right flank as follows: C57BL/6 2 × 10^5 MC38; BALB/c 2 × 10^5 CT26. When tumors were approximately 5 mm in average diameter at approximately 10–14 days following implantation, mice were randomized to receive treatment with CT-guided radiation using the Small Animal Radiation Research Platform (SARRP) from XStrahl. Dosimetry was performed using Murislice software from XStrahl. The SARRP delivered a single dose of 12 Gy to an isocenter within the tumor using a 10 mm x 10 mm collimator and a 45° beam angle to minimize dose delivery to normal tissues. The Enpp1 inhibitor VIR3 was delivered through oral gavage starting 1 day prior to RT daily for 21 days. Tumors were measured using calipers in two directions and reported as mean tumor diameter. Survival curves were based on an endpoint of tumor diameter of greater than 12 mm in any direction.
To deplete CD8 T cells, 200 µg of depleting anti-CD8b (53 − 5.8, BioXCell, West Lebanon, NH) were administered intraperitoneally. This administration took place one day before the first dose of Vir3, followed by two additional anti-CD8b administrations at 7-day intervals.

[3] = molecular target: T2, HepG2 cells that express ENPP1 on their surface (Homo sapiens, UniProt P22413); assay: Cellular inhibition of cGAMP hydrolysis on HepG2 cells (cGAMP ELISA); type: cell-based; details: 100 ng/mL 2'3'-cGAMP, overnight (20 h), read-out: EC50, protection of spiked-in cGAMP from hydrolysis
T2 construct: HepG2 cells that express ENPP1 on their surface; host or cells: HepG2
T2 sequence (P22413 1-925): T1 sequence (P22413 1-925)
Procedure: (§2) Enzymatic inhibition assays were performed by incubating 1.5 nM ENPP1 (R&D Systems cat# 6136-EN-010) with serial dilutions of Vir-3 for 15 minutes at 37 °C in buffer (50mM Tris pH 8.0, 250mM NaCl, 0.5mM CaCl2, 1uM ZnCl2, 1% DMSO) before adding 20 uM 2’3’-cGAMP (Invivogen cat.# tlrl-nacga23). The reaction was incubated for 30 min at 37 °C prior to assessing the generated AMP using the AMP-Glo assay (Promega cat.# V5012). Cellular inhibition of cGAMP hydrolysis was performed using HepG2 cells pre-incubated with serial dilutions of Vir-3 in DMEM + 10% Charcoal stripped FBS for 30 min at 37 °C with 5% CO2. 100 ng/mL of 2’3’-cGAMP was then added to the cells and incubated for 20 h at 37 °C with 5% CO2. Media was then removed and the remaining cGAMP was quantified using a 2’3’-cGAMP ELISA kit (Cayman Chemical cat.# 501700).

[4] = Toxicity observation in treated mice; type: in vivo; details: mice treated with oral VIR3
[5] = test system: MC38 and CT26 tumors; assay: RNASeq of tumors 4 days following radiation treatment; type: in vivo, mouse; details: VIR3 treatment
Procedure: Mice were implanted with tumors and randomized to treatment with 12 Gy RT and VIR3 as above. 4d following RT, the tumors were harvested, debulked and immediately flash frozen by rapid immersion in liquid nitrogen. Frozen tumors were crushed, treated with 500 µl of RNAlater, then frozen at -80 °C. To extract RNA, the samples were thawed on ice, and 500 µl of buffer RLT (QIAGEN Cat. No. 79219) was added and samples were homogenized. Following centrifugation, RNA was isolated using a QIAGEN RNeasy Plus Mini Kit (Cat No. 74134), according to the manufacturer’s instructions. Quality was checked on nanodrop (ND-1000) and the quantity of RNA was determined on Qubit 4 flourometer. To prepare for sequencing, samples were processed using an Illumnia TruSeq® Stranded mRNA Library Prep kit with Illumina TruSeq RNA Single Indexes Set A and Set B barcoding kits. An Illumnia NovaSeq 6000 S1 Reagent Kit v1.5 was used to make RNA libraries along with a NovaSeq XP 2-Lane Kit v1.5. RNA libraries were sequenced on NovaSeq 6000.
Demultiplexed fastq files for all samples were first processed with FastQC for general quality control. All the samples in the sequencing run passed read level QC with at least 17 million reads per sample. Average read depth across all samples were 51 million reads. Raw illumina BCL data was demultiplexed using Illumina bcl2fastq2 v2.20. Gene expression counts were quantified using salmon-v.1.1.0 [76] for all samples sequenced. Differential gene expression analysis was performed using the R software package edgeR[77]. Differential gene expression analysis was performed on all groups of Tumor+/-Drug+/-RT combinations. Gene set enrichment analysis was performed using GSEA v4.3.2 Preranked method[78],[79]. The following genesets; c3.all.v2023.2.Hs.symbols.gmt, c5.all.v2023.2.Hs.symbols.gmt, c7.all.v2023.2.Hs.symbols.gmt from Molecular Signatures Database (gsea-msigdb.org) were used for enrichment analysis.

[6] = test system: cDC1 and cDC2 in MC38 tumors; assay: Flow cytometry of myeloid infiltration in MC38 tumors; type: in vivo, mouse; details: 4 days following radiation time point (d18)
Procedure: Analysis of tumor infiltrating myeloid cells was performed as previously described. Briefly, following dissection, tumors were weighed and minced into small fragments, then transferred into C tubes from Miltenyi Biotec containing enzyme digest mix with 250U/mL collagenase IV (Worthington Biochemical, #LS004188), 30U/mL DNase I (Millipore-Sigma, #4536282001), 5mM CaCl2, 5% heat inactivated FBS and HBSS. Tissue was dissociated using a GentleMACS tissue dissociator from Miltenyi Biotech. This was followed by incubation at 37 °C for 30 min with agitation. Enzymatic reactions were quenched using ice cold RPMI containing 10% FBS and 2mM EDTA. Single cell suspensions were then filtered through 100 μm (tumor) or 40 μm (dLN) nylon cell strainers to remove macroscopic debris. Cells were washed and counted for staining. 2 × 10^6 cells were stained with Zombie Aqua Viability Dye from BioLegend (#423102) in PBS for 10 min on ice, then Fc receptors were blocked with anti-CD16/CD32 antibodies from BD Biosciences (2.4G2) for an additional 10 min. After centrifugation, the supernatant was removed and cell were stained with a surface antibody cocktail containing in FACS buffer (PBS, 2mM EDTA, 2% FBS) and Brilliant Stain Buffer Plus from BD Biosciences (#566385) for 20 min on ice. […] Data were analyzed using FlowJo software from Tree Star, v10.7. […]

[7] = In vivo pharmacokinetics, IV and PO; details: mouse
Procedure: For pharmacokinetic analysis, female C57BL6 mice were dosed with Vir-3 by either IV administration or oral gavage or IV administration either once or daily for 5 days. 3 mice were used per time point with staggered groups to cover all times. Blood was collected at 0.25, 0.5, 1, 3-, 5-, 8- and 24-hours post-dose into heparinized tubes. Plasma was prepared from each sample and protein precipitated prior to LC-MS/MS injection. Levels of Vir-3 were quantitated, and data was analyzed using Certara’s Phoenix Winnonlin.

[8] = molecular target: T1, Enpp1; assay: Enzymatic inhibition of recombinant ENPP1 cGAMP hydrolysis (AMP-Glo); type: biochemical; parameters: purchased R&D Systems 6136-EN-010; details: recombinant ENPP1 1.5 nM, 20 uM 2'3'-cGAMP; value is the lower threshold of the assay
Procedure: as §2

[9] = test system: CT26 tumors; assay: CT26 tumor model in BALB/c mice, VIR3 oral gavage +/- 12 Gy focal RT, survival; type: in vivo, mouse; details: daily oral gavage for 21 days
Procedure: as §1

## COc1ccc2c(Nc3ccc(S(=N)(=O)NCC(C)O)cc3)ccnc2c1 (centres unmarked) [VIR3]
[1]
  selectivity and specificity for Enpp1: high selectivity and specificity
[2]; MC38 tumors in C57BL/6 mice, daily oral gavage for 21 days, 12 Gy on second day of dosing
  response to radiation therapy (survival), VIR3 + RT: significantly improved the response to radiation therapy
[2]; MC38 tumors in C57BL/6 mice, daily oral gavage for 21 days, no RT
  tumor growth, VIR3 alone: did not impact tumor growth alone
[2]; MC38 tumors in IFNAR1-/- mice
  response to RT + VIR3 with loss of IFNAR1 in host cells: completely abrogated all responses to treatment
[2]; MC38 tumors in STING-/- mice, no statistically significant difference in survival by logrank test
  tumor control by RT + VIR3 with loss of STING in host cells: fewer mice cured
[2]; MC38 tumors, wt mice, anti-CD8 given
  tumor control by RT + VIR3 with CD8 depletion: abrogated tumor control
[3]
  EC50: 6.7 nM
[4]
  toxicity: toxicity was not observed
[5]; CT26 and MC38 tumors
  Cdkn1a and Ccl2 gene expression in tumor: not impacted
[5]; both CT26 and MC38 tumors
  Tsc33d3 gene expression in tumor: upregulated
[5]; untreated and irradiated CT26 and MC38 tumors, FDR correction
  Wee1 gene expression in tumor: significantly regulated
[6]
  dendritic cells (cDC1, cDC2) in tumor, VIR3 alone: can cause DC loss
[7]; P.O. 60 mg/kg
  Cmax, total: 795 ng/mL
[7]; comparing IV and PO routes
  oral bioavailability (in words): low
[7]; female, C57BL6, plasma, iv, I.V. 1 mg/kg
  half-life: 48.3 h
[7]; female, C57BL6, plasma, iv, I.V. 1 mg/kg, approximate given extrapolation from a portion of AUCinf
  clearance: ~27.7 mL/min/kg
[7]; female, C57BL6, plasma, iv, I.V. 1 mg/kg, read-out: Vss
  Vd: 52.5 L/kg
[7]; female, C57BL6, plasma, oral, P.O. 60 mg/kg vs I.V. 1 mg/kg
  bioavailability: 5.7%
[7]; female, C57BL6, plasma, po, P.O. 60 mg/kg
  half-life: 24.3 h
[7]; female, C57BL6, plasma, po, P.O. 60 mg/kg, read-out: AUC0-last, total
  AUC(0-t): 1420 ng·h/mL
[8]
  IC50: < 0.75 nM
[9]; 12 Gy on day 14
  response to radiation therapy (survival), VIR3 + RT: significantly improved the response to radiation therapy
[9]; no RT
  tumor growth, VIR3 alone: did not impact tumor growth alone
